Patent US9790180B2, “Piperidine derivatives as HDAC1/2 inhibitors” (Acetylon Pharmaceuticals, Inc., priority 2014, dated 2017)
≈ marks a conversion by molar mass, not a printed value. Where two headings read alike, the source gives them in different places.

Tests used:
[1] = system: fetal β-like globin (HbG, γ); assay: Fetal globin induction assay in CD34+ cells isolated from human bone marrow; type: cell-based; settings: for Cell based assay potency: lowest concentration to achieve a 2 fold increase in fetal globin gene expression over baseline
Protocol: CD34+ cells isolated from human bone marrow were cultured in vitro using a method described by Bradner J E (Proc Natl Acad Sci USA. 2010 Jul. 13; 107(28):12617-22), which consists of a 7 day expansion phase in media that supports differentiation of cells towards the erythroid lineage followed by a differentiation phase for 3 days where erythroid cell development continues. At the end of the differentiation period these cells are primarily late erythroblasts. mRNA levels were determined by quantitative real time PCR using primer/probe sets designed to adult major β-globin (β), adult minor β-globin (δ), fetal β-like globin (HbG, γ), and embryonic β-like globin (ε). Protein levels were determined by flow cytometry using fluorescent antibodies against fetal hemoglobin (HbF) or adult hemoglobin (HbA).
In the experiment shown in FIG. 3, cells were differentiated in the presence of vehicle (DMSO) 0.3, 1 and 3 μM of Compound A, and of 0.3, 1, and 3 μM of Compound 003. In the experiment shown in FIG. 6, cells were differentiated in the presence of vehicle (DMSO) 0.3, 1 and 3 μM of Compound A, and of 0.3, 1, and 3 μM of Compound 005. Globin mRNA levels were determined at day 3 of differentiation.

Microsome stability = type: in vitro ADME
[2] = system: CYP1A2, CYP2C9, CYP2C19, CYP3A4, CYP2D6; assay: Cyp inhibition in human liver microsomes; type: in vitro ADME; settings: for Cyp: In vitro tox, human liver microsomes
Protocol: For Cyp inhibition, human live microsomes from BD Gentest were incubated with Compound 003 (10, 3.33, 1.11, 0.37, 0.12, 0.04, 0.01 μM) and substrate (CYP1A2: Phenacetin at 30 μM; CYP2C9: Diclofenac at 10 μM; CYP2C19: S-Mephenytoin at 35 μM; CYP3A4: Midazolam at 5 μM and Testosterone at 80 μM; CYP2D6: Bufuralol at 10 μM) for the following incubation times: CYP1A2, 2C9, 2D6: 10 minutes, 37° C.; CYP2C19: 45 minutes, 37° C.; CYP3A4: 5 minutes, 37° C. Substrate conversion was measured by liquid chromatography/mass spectrometry/mass spectrometry (LC/MS/MS). Inhibition was calculated by curve fitting in Graph Pad Prism.

HDAC2 = HDAC2 (Homo sapiens (Human), UniProt Q92769); assay: HDAC enzyme assay, HDAC2; type: biochemical
HDAC2, sequence (Q92769 whole entry): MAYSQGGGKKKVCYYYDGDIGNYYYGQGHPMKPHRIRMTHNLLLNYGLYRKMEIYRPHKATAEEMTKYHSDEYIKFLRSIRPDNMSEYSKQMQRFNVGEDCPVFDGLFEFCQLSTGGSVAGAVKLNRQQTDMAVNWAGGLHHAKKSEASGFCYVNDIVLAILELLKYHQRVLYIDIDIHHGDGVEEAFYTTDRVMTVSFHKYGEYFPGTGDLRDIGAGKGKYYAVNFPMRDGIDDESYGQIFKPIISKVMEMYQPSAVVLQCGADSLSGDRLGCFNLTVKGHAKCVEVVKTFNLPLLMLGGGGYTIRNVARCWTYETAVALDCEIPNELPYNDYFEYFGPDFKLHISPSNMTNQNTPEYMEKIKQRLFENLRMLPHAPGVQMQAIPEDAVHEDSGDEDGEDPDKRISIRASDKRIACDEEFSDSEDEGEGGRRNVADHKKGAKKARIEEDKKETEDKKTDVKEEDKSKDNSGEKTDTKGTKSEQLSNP
Protocol: (§1) Compounds for testing were diluted in DMSO to 50 fold the final concentration and a ten point three fold dilution series was made. The compounds were diluted in assay buffer (50 mM HEPES, pH 7.4, 100 mM KCl, 0.001% Tween-20, 0.05% BSA, 20 μM tris(2-carboxyethyl)phosphine) to 6 fold their final concentration. The HDAC enzymes (purchased from BPS Biosciences) were diluted to 1.5 fold their final concentration in assay buffer and pre-incubated with the compounds for 24 hours prior to addition of the substrate.
(§2) The substrate tripeptide substrate 3 (synthesized in house) for each enzyme was equal to the Km as determined by a substrate titration curve. The substrates were diluted in assay buffer at 6× their final concentration with 0.3 μM sequencing grade trypsin (Sigma). The substrate/trypsin mix was added to the enzyme/compound mix, the plate was shaken for 60 seconds and placed into a Spectramax M5 microtiter plate reader. The development of fluorescence was monitored for 30 min and the linear rate of the reaction was calculated. The IC50 was determined using Graph Pad Prism by a four parameter curve fit. The IC50 values obtained for the compounds of this invention are found in Table 1. Examples of the curves are found in FIGS. 1 and 4.

hERG channel = hERG channel (Homo sapiens (Human), UniProt Q12809); assay: hERG assay (QPatch, CHO cell line expressing hERG channels); type: cell-based; settings: for hERG: In vitro tox
hERG channel, sequence (Q12809 whole entry): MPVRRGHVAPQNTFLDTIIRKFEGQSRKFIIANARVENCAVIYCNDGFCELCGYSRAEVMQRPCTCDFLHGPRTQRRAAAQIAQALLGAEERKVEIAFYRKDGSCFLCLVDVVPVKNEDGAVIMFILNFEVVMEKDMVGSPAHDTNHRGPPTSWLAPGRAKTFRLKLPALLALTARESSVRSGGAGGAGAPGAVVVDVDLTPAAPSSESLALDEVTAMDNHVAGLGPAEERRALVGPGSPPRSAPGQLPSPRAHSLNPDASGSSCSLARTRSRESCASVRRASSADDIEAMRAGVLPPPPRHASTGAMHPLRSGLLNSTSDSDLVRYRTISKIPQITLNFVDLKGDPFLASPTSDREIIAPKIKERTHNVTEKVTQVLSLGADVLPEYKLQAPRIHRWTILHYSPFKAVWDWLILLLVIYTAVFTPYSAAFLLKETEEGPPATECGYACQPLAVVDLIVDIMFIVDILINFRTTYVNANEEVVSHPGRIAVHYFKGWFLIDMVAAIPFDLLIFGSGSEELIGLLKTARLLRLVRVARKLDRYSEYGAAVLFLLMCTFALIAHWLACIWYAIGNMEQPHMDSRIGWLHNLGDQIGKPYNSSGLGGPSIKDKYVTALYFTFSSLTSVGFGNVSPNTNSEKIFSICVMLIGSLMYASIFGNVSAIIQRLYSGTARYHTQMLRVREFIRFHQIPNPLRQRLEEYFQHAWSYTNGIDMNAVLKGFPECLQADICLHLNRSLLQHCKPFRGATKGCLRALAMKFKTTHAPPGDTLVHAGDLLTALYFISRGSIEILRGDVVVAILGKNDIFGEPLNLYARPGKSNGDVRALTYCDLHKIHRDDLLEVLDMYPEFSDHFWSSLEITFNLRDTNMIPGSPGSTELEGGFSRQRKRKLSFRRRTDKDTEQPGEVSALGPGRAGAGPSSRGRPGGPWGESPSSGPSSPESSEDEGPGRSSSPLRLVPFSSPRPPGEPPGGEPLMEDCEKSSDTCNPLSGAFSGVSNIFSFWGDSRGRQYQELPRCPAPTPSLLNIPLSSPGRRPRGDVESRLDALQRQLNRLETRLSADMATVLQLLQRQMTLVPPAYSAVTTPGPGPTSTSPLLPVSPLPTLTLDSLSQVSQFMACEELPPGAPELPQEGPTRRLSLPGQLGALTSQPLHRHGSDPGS
Protocol: For hERG assays, a CHO cell line stably transfected with hERG cDNA and expressing hERG channels were seeded into a QPatch plate (Sophion) at a density of 3-8×10^6 cells/ml. The cells were voltage clamped at a holding potential of −80 mV. The hERG current was activated by depolarizing at +20 mV for 5 sec, after which the current was taken back to −50 mV for 5 sec to remove the inactivation and observe the deactivating tail current. The maximum amount of tail current size was used to determine hERG current amplitude. Six doses (30, 10, 3, 1, 0.3 and 0.1 μM) of Compound 003 were chosen to obtain fitting curves and IC50. Data were analyzed using Assay Software provided by Sophion and Graphpad Prism.

[3] = system: bacterial tester strains TA98, TA100, TA1535 and TA97a and E. coli tester strain WP2 uvrA; assay: Ames genotoxicity (bacterial reverse mutation)
Protocol: For genotoxicity, bacterial tester strains TA98, TA100, TA1535 and TA97a as described by Ames et al. (1975) and the E. coli tester strain WP2 uvrA as described by Green and Muriel (1976) were incubated with Compound 003 at 250, 75, 25, 7.5, 2.5, 0.75, 0.25, and 0.075 μg/well in 24 well plates either with or without liver homogenate (S9) purchased commercially (MolTox; Boone, N.C.) prepared from male Sprague Dawley rats that have been injected intraperitonealy with Aroclor 1254 (200 mg/mL in corn oil), at a dose of 500 mg/kg, 5 days before sacrifice. Mutagenicity is evaluated by counting the number of colonies that form on non-permissive media.

HDAC3 = HDAC3 (Homo sapiens (Human), UniProt O15379); assay: HDAC enzyme assay, HDAC3; type: biochemical
HDAC3, sequence (O15379 whole entry): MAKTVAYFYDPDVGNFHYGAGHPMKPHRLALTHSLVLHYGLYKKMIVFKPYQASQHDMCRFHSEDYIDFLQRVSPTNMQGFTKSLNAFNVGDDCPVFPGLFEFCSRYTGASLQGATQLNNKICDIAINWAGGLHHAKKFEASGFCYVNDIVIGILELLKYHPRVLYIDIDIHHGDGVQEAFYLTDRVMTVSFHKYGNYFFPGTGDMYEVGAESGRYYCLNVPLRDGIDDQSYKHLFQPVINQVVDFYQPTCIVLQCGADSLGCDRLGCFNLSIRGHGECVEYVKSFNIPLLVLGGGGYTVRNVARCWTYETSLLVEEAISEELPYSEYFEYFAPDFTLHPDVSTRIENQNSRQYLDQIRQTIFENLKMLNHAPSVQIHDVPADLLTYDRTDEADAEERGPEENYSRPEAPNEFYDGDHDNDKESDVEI
HDAC3, sequence (Q9Y618 395-489 partner): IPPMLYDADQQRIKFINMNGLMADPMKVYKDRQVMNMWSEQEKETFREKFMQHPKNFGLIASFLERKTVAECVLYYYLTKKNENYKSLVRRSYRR
Protocol: as §1, §2

HDAC1 = HDAC1 (Homo sapiens (Human), UniProt Q13547); assay: HDAC enzyme assay, HDAC1; type: biochemical
HDAC1, sequence (Q13547 whole entry): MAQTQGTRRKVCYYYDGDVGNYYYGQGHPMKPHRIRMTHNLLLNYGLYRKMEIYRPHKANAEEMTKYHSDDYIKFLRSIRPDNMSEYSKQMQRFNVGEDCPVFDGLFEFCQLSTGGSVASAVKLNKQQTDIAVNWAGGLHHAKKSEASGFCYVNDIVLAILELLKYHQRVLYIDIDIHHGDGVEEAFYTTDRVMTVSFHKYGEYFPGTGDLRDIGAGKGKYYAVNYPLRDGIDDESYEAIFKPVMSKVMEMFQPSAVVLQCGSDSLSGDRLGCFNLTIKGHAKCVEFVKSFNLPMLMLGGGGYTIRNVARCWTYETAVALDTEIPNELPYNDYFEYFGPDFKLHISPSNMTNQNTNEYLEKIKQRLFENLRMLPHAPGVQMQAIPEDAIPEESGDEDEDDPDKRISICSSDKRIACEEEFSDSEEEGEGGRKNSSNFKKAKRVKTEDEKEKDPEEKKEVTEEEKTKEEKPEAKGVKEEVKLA
Protocol: as §1, §2

[4] = Rat cassette pharmacokinetics; type: in vivo; settings: male, SD, plasma; for bioavailability: 5 mg/kg, rat, oral AUC to IV AUC, dose adjusted; for AUC / Cmax / half-life / CL renal: rat cassette dosing; for AUC / Cmax / half-life: 5 mg/kg PO; for half-life: read-out: PO T½ (converted); for CL renal: IV 1 mg/kg, read-out: IV Clr. (converted)
Protocol: Male SD rats were fasted overnight. Compounds of the invention were dissolved in dimethyl acetamide at 10 times the final concentration, then Solutol HS 15 (BASF) was added to a final concentration of 10%. Finally 80% saline was added and vortexed to achieve a clear solution. For the IV dosing three animals were injected via the foot dorsal vein with 1 mg/kg compound. For the PO dosing 5 mg/kg of compound was delivered by oral gavage. Blood was collected via the tail vein into K2EDTA tubes at 5 minutes, 15 minutes, 30 minutes, 1 hour, 2 hours, 4 hours, 8 hours and 24 hours after dosing. The blood was centrifuged at 2000 g for 5 minutes at 4° C. to obtain plasma. The plasma was extracted with acetonitrile and the level of compound was analyzed by LC/MS/MS. The level of compound in plasma was calculated from a standard curve in rat plasma. The IV clearance and area under the curve were calculated using WinNonLin software. The dose adjusted area under the curve for the IV and oral dosing were used to calculate the oral bioavailability.

[5] = system: human peripheral blood lymphocytes (HPBL); assay: Micronucleus formation assay; type: cell-based
Protocol: Genotoxicity was further evaluated by micronucleus formation assay in human peripheral blood lymphocytes (HPBL). HPBL were obtained from healthy donors and exposed to Compound 003 at […] for 4 hours with or without S9 activation. The cells were washed with PBS and incubated in complete medium with 6 μg/ml cytocholasin B for 24 hours. The cells were then lysed, fixed, and mounted on microscope slides. The number of mononucleated, binucleated, and micronucleated cells was counted under blinded conditions.

Solubility = type: physicochemical
Gata2 mRNA = Gata2 mRNA induction in erythroid progenitors; type: cell-based, human; settings: primary erythroid progenitors, 3 days differentiation, relative to beta-actin mRNA (FIG. 7)
Excerpt: Human bone marrow derived CD34+ cells were expanded for 7 days as described by Sankaran et al., Science, vol. 322(5909), pp. 1839-42 (2008). Cells were then differentiated, in the presence of the indicated concentration of Compound 005, Compound A (another known HDAC1/2 inhibitor), or vehicle control (DMSO), for 3 days in media supporting erythropoiesis (Hu et al., “Isolation and functional characterization of human erythroblasts at distinct stages: implications for understanding of normal and disordered erythropoiesis in vivo”, Blood, vol. 121(16), pp. 3246-53 ([…])). Gata2 mRNA was determined using quantitative real time PCR and expressed relative to the level beta-actin mRNA control.

[6] = 24 hours pre-incubation with enzyme, read-out: IC50 (nM) HDAC2
[7] = 24 hours pre-incubation with enzyme, read-out: IC50 (nM) HDAC3
[8] = 24 hours pre-incubation with enzyme, read-out: IC50 (nM) HDAC1

IC50 (HDAC2; [6]) [nM] | IC50 (HDAC3; [7]) [nM] | IC50 (HDAC1; [8]) [nM] | bioavailability [4] [%] | AUC [4] [ng·h/mL] | Cmax [4] [ng/mL] | half-life [4] [h] | CL renal [4] [mL/min/kg] | solubility (Solubility) [µM] | Structure (SMILES) | Cell based assay potency [1] [nM] | Microsome stability (Microsome stability) [min] | Cyp [2] [µM] | hERG (hERG channel) [µM] | also measured
28 | 203 | 7 | 142 | 6090 | 1010 | 5.9 | 20 | 42.7 (≈ 24 µg/mL) | CC(C)C1(Nc2ncc(C(=O)Nc3cc(-c4cccs4)ccc3N)cn2)CCN(C(=O)N2CCN(C)CC2)CC1 [Compound 002] | 3000 | – | >10 | >30 | –
38 | 427 | 6.5 | 63 | 5960 | 988 | 3.8 | 8.83 | 16.9 (≈ 8.34 µg/mL) | CC(C)NC(=O)N1CCC(C)(Nc2ncc(C(=O)Nc3cc(-c4cccs4)ccc3N)cn2)CC1 [Compound 001] | 3000 | 11 | – | >30 | –
– | – | – | – | – | – | – | – | – | Nc1ccc(-c2cccs2)cc1NC(=O)c1ccc2nc(N3CCNCC3)ccc2c1 [Compound A, reference compound] | – | – | – | – | induction of % HbG ([1]; primary erythroid progenitors, 3 days differentiation (FIG. 6)): equivalent dose and time-dependent induction; IC50 (HDAC2; reference compound, read-out: IC50 for HDAC2): ~15 nM; IC50 (HDAC3; reference compound, read-out: IC50 for HDAC3): ~114 nM; IC50 (HDAC1; reference compound, read-out: IC50 for HDAC1): ~4 nM; induction of Gata2 mRNA (Gata2 mRNA): equivalent dose and time-dependent induction

Structure (SMILES) | IC50 (HDAC2; [6]) [nM] | IC50 (HDAC3; [7]) [nM] | IC50 (HDAC1; [8]) [nM] | bioavailability [4] [%] | AUC [4] [ng·h/mL] | Cmax [4] [ng/mL] | half-life [4] [h] | CL renal [4] [mL/min/kg] | solubility (Solubility) [µM] | Cell based assay potency [1] [nM] | Microsome stability (Microsome stability) [min] | Cyp [2] [µM] | hERG (hERG channel) [µM] | also measured
Nc1ccc(-c2cccs2)cc1NC(=O)c1cnc(NC2CCN(C(=O)N3CCOCC3)CC2)nc1 [Compound 003] | 56 | 204 | 15 | 118 | 59900 | 2320 | 17 | 2 | 54 (≈ 27.4 µg/mL) | 3000 | 4.7 | >10 | >30 | inhibition of activity of any Cyp ([2]; up to 10 μM): did not inhibit; inhibition of the activity of the hERG channel (hERG channel; at the highest concentration of 30 μM): did not inhibit; Ames ([3]; In vitro tox): Neg; number of revertant colonies ([3]; any strain, with or without S9 activation): did not increase; MN ([5]; In vitro tox): Neg; number of micronucleated cells ([5]; any concentration, 4 hours with or without S9 activation): did not increase
